In brackets after ≈: the same amount, converted by molar mass. Marks after values point to notes of the source that are not given here. A value given as a limit tells only on which side of the number the result lay.

For test [1], the system named is OXA-24/40. To be noted: ref Kaitany et al. [13], cited from earlier work; for Km: 50 mM NaH2PO4, 25 mM NaHCO3, pH 7.4, 25°C; for Ks (competition kinetics with ampicillin as reporter substrate): from IC50 by Cheng-Prusoff.
For test [2], the system named is OXA-23. To be noted: ref Kaitany et al. [13], cited from earlier work; for Km: 50 mM NaH2PO4, 25 mM NaHCO3, pH 7.4, 25°C; for Ks (competition kinetics with ampicillin as reporter substrate): from IC50 by Cheng-Prusoff.
Test [3] addresses OXA-225 (OXA-23 P225S) (Acinetobacter baumannii, UniProt Q9L4P2, P225S). The experiment in a line: Steady-state kinetic analysis of β-lactam hydrolysis by OXA-225. It is filed as biochemical. To be noted: for kcat / Km / Ks (competition kinetics with ampicillin as reporter substrate): OXA-225; for Km: 50 mM NaH2PO4, 25 mM NaHCO3, pH 7.4, 25°C; for Ks (competition kinetics with ampicillin as reporter substrate): from IC50 by Cheng-Prusoff.

Test [4] relates to OXA-160 (OXA-24/40 P227S). It is filed as biochemical, Acinetobacter baumannii. To be noted: for kcat / Km / Ks (competition kinetics with ampicillin as reporter substrate): OXA-160; for Km: 50 mM NaH2PO4, 25 mM NaHCO3, pH 7.4, 25°C; for Ks (competition kinetics with ampicillin as reporter substrate): from IC50 by Cheng-Prusoff.
Test [5] relates to A. baumannii strain that yielded OXA-160. To be noted: A. baumannii strain from which OXA-160 was derived; cited from earlier work.
The mark [6] stands for this setting: conversion of OXA-24/40 to OXA-160.

What is called Km is the concentration of substrate that gives half-maximal velocity. Broadly, the kcat is the number of substrate molecules converted per active site and unit of time at saturation. Consider `CC1(C)S[C@@H]2[C@H](NC(=O)[C@H](N)c3ccccc3)C(=O)N2[C@H]1C(=O)O` [Ampicillin, ampicillin], for which the Michaelis constant (Km) in test [1] was 180 ± 20 µM; in test [2], 82 ± 9 µM; in test [3], 12 ± 1 µM; in test [4], 13 ± 1 µM. In addition, the kcat was 480 ± 20 s⁻¹ in test [1], 460 ± 10 s⁻¹ in test [2], 150 ± 10 s⁻¹ in test [3] and 93 ± 2 s⁻¹ in test [4]. Moreover, the “gain (increase) in kcat/Km from the P→S substitution” value in test [3] (OXA-225 compared to OXA-23) is ~ 2 fold. Moreover, the “gain in kcat/Km from the P→S substitution” value in test [4] (OXA-160 compared to OXA-24/40) was ~ 3 fold.
For orientation: MIC means the lowest concentration that inhibits growth of the organism. For `C[C@H]1[C@H](NC(=O)/C(=N\OC(C)(C)C(=O)O)c2csc(N)n2)C(=O)N1S(=O)(=O)O` [Aztreonam, aztreonam], the Km in test [1] is over 1500 µM; in test [2], 2400 µM; in test [3], 13 ± 2 µM. In addition, the kcat is over 0.3 s⁻¹ in test [1], 0.24 ± 0.01 s⁻¹ in test [2], 0.79 ± 0.03 s⁻¹ in test [3] and 2.7 ± 0.2 s⁻¹ in test [4]. Also, in test [5], the MIC was 128 µg/mL (≈ 294 µM).
In the case of `CO/N=C(\C(=O)N[C@@H]1C(=O)N2C(C(=O)O)=C(COC(C)=O)CS[C@H]12)c1csc(N)n1` [Cefotaxime, cefotaxime], the Km is 750 ± 70 µM in test [1], 340 ± 30 µM in test [2], 100 ± 20 µM in test [3] and 170 ± 5 µM in test [4]. In addition, the catalytic constant (kcat) was 0.38 ± 0.01 s⁻¹ in test [1], 5.5 ± 0.1 s⁻¹ in test [2], 3.2 ± 0.2 s⁻¹ in test [3] and 0.41 ± 0.01 s⁻¹ in test [4].
Take `CC(C)(O/N=C(\C(=O)N[C@@H]1C(=O)N2C(C(=O)[O-])=C(C[n+]3ccccc3)CS[C@H]12)c1csc(N)n1)C(=O)O` [Ceftazidime, ceftazidime]: the “hydrolytic activity (in words)” value in test [1] and in test [2] was “no activity” each time. Further, the turnover number (kcat) in test [1] was under 0.02 s⁻¹; in test [2], under 0.02 s⁻¹; in test [3], 1.4 ± 0.1 s⁻¹; in test [4], over 0.80 s⁻¹. Besides, the Michaelis-Menten constant (Km) in test [3] was 1400 µM; in test [4], over 3000 µM.
Turning to `CO/N=C(\C(=O)N[C@@H]1C(=O)N2C(C(=O)O)=C(CSc3nc(=O)c(=O)[nH]n3C)CS[C@H]12)c1csc(N)n1` [Ceftriaxone, ceftriaxone], the Km is 110 ± 10 µM in test [1], 5.4 ± 0.5 µM in test [2] and 14 ± 0.8 µM in test [4]. Further, the kcat in test [1] is 0.035 ± 0.001 s⁻¹; in test [2], 0.021 ± 0.001 s⁻¹; in test [3] it was 0.051 ± 0.002 s⁻¹; in test [4], 0.24 ± 0.01 s⁻¹. Also, the “Ks (competition kinetics with ampicillin as reporter substrate)” value (from here on “Ks”) in test [3] is on record as 0.48 ± 0.05 ^b µM.
Consider `C[C@@H](O)[C@H]1C(=O)N2C(C(=O)O)=C(S[C@@H]3CN[C@H](CNS(N)(=O)=O)C3)[C@H](C)[C@H]12` [Doripenem, doripenem], for which the “Ks” value in test [1] is given as 0.024 ± 0.003 ^b µM; in test [2], 0.018 ± 0.002 ^b µM; in test [3] it was 0.027 ± 0.005 ^b µM; in test [4], 0.014 ± 0.003 ^b µM. Also, the turnover number (kcat) in test [1] was 0.074 ± 0.001 s⁻¹; in test [2], 0.028 ± 0.003 s⁻¹; in test [3] it was 0.026 ± 0.002 s⁻¹; in test [4], 0.064 ± 0.001 s⁻¹. For the same compound, the “increase in kcat/Km” value in test [4] (setting [6]) stood at 40%.
On to `C[C@@H](O)[C@H]1C(=O)N2C(C(=O)O)=C(SCCN=CN)C[C@H]12` [Imipenem, imipenem], for which the “Ks” value is on record as 0.68 ± 0.09 ^b µM in test [1], 0.20 ± 0.02 ^b µM in test [2], 0.20 ± 0.02 ^b µM in test [3] and 0.043 ± 0.005 ^b µM in test [4]. Further, the turnover number (kcat) is 2.1 ± 0.1 s⁻¹ in test [1], 0.49 ± 0.01 s⁻¹ in test [2], 0.39 ± 0.01 s⁻¹ in test [3] and 0.12 ± 0.01 s⁻¹ in test [4]. Further, the “decrease in kcat/Km” value in test [4] (setting [6]) came to 10%.
For `CO/N=C(\C(=O)N[C@@H]1C(=O)N2C(C(=O)[O-])=C(C[N+]3(C)CCCC3)CS[C@H]12)c1csc(N)n1` [cefepime], the minimal inhibitory concentration (MIC) in test [5] is 64 µg/mL (≈ 133 µM).
On to `C[C@@H](O)[C@H]1C(=O)N2C(C(=O)O)=C(S[C@@H]3CN[C@H](C(=O)N(C)C)C3)[C@H](C)[C@H]12` [meropenem], for which the MIC in test [5] is 16 µg/mL (≈ 41.7 µM).

The record behind these values is article PMC4476283 (Biochemistry, 2015).
